Source: publication PMC9224512, “New Insights into the Determinants of Specificity in Human Type I Arginase: Generation of a Mutant That Is Only Active with Agmatine as Substrate” (International Journal of Molecular Sciences, 2022)
Residue numbers refer to the chain shown, from its start.

Columns and labels:
[1] = molecular target: T1, Chimera A2 (I129T/N130Y/T131A+∆ P132-T134) of human arginase type I (Homo sapiens, UniProt P05089, DEL129-131/I129T/L133Y/N130Y/P132T/T134A); experiment: Kinetic and inhibition studies, Chimera A2; format: biochemical; conditions: substrate agmatine
T1 construct: made in house; host or cells: E. coli JM109
T1 sequence (P05089 with tags, fused parts or gaps DEL129-131/P132T/L133Y/T134A): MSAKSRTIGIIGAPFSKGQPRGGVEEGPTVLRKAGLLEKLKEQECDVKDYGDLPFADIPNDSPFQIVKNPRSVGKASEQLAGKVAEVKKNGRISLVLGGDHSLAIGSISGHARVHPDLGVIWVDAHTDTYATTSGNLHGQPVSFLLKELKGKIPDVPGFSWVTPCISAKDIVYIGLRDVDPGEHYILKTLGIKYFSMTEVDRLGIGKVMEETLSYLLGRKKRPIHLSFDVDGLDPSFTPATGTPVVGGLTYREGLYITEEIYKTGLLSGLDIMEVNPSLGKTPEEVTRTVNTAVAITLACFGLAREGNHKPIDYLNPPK
Method: (§1) Bacterial cultures were grown with shaking at 37 °C in Luria Broth media, in the presence of ampicillin (100 μg/mL). The wild-type and mutant human liver arginase cDNAs were directionally cloned into the pBluescript II KS(+) expression vector and then expressed in E. coli JM109, following induction with 1 mM isopropyl β-D-thiogalactopyranoside. The bacterial cells were disrupted by sonication on ice (5 × 30 s pulses), centrifuged for 20 min at 12,000× g, and the obtained supernatant was precipitated with ammonium sulfate (60% saturation). The pellet, collected by centrifugation at 12,000× g for 10 min, was re-suspended in buffer 5 mM Tris–HCl (pH 7.5) containing 2 mM MnCl2 and dialyzed for 6 h at 4 °C against the same buffer. After incubation with 5 mM MnCl2 for 10 min at 60 °C, the enzyme variants were purified as previously described. The purity of the enzymes was evaluated by SDS–PAGE stained by Coomassie blue and immunodetection using an anti- rat arginase I antibody.
(§2) The single, double, triple, and chimera variants of human arginase type I were obtained by PCR, using the QuickChange site-directed mutagenesis kit (Stratagene, La Jolla, CA, USA); the plasmid pBluescript II KS(+) containing the human liver arginase cDNA was used as template. To obtain the chimeric species of human arginase type I, serial mutations were made in each loop to be modified, using as template DNA the wild-type arginase gene or the previous done mutation, subcloned in the plasmid pBluescript II KS (+). Specifically, the residues present in the arginase structure were replaced by those corresponding to the agmatinase sequence of E. coli.
(§3) All assays were initiated by adding the enzyme to a previously equilibrated buffer with the substrate in solution (the concentrations of used substrates were between 0.2–3 fold the Km). Urea was determined by a colorimetric method with α-isonitrosopropiophenone. The protein concentrations were determined by the Bradford’s method, with bovine serum albumin as standard. Initial velocity and enzymatic inhibition experiments were performed in duplicate and repeated three times. The inhibitory patterns were initially determined by double reciprocal plots and re-plots of intercepts and slopes versus inhibitor concentrations. […] Velocities are expressed as μmol of urea/10 min.

[2] = molecular target: T2, type I human arginase D181T/V182E (Homo sapiens, UniProt P05089, D181T/V182E); experiment: Kinetic and inhibition studies, D181T/V182E double mutant; format: biochemical; conditions: substrate arginine
T2 construct: made in house; host or cells: E. coli JM109
T2 sequence (P05089 1-322 D181T/V182E): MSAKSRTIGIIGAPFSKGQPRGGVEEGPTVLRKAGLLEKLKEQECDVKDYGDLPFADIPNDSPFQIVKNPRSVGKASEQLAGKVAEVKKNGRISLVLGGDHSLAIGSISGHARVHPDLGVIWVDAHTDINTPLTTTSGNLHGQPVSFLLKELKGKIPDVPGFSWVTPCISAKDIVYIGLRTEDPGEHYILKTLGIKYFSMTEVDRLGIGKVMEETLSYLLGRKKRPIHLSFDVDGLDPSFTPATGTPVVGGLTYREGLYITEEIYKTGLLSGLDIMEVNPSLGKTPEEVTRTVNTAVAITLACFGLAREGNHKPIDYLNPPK
Method: as §1, §2, §3

[3] = molecular target: T3, WT-arginase (human arginase type I) (Homo sapiens, UniProt P05089); experiment: Kinetic and inhibition studies, wild-type human arginase type I; format: biochemical; conditions: for Inhibition type / Kis (Ki): substrate arginine
T3 construct: made in house; host or cells: E. coli JM109
T3 sequence (P05089 1-322): T2 sequence (P05089 1-322 D181T/V182E) with T181D, E182V
Method: as §1, §3

[4] = molecular target: T4, human arginase type I N130D (Homo sapiens, UniProt P05089, N130D); experiment: Kinetic and inhibition studies, N130D mutant; format: biochemical; conditions: arginine 5 mM, pH 9.5; Figure 3A
T4 sequence (P05089 1-322 N130D): T2 sequence (P05089 1-322 D181T/V182E) with N130D, T181D, E182V
Method: as §1, §2, §3

[5] = molecular target: T5, human arginase type I S137C (Homo sapiens, UniProt P05089, S137C); experiment: Kinetic and inhibition studies, S137C mutant; format: biochemical; conditions: arginine 5 mM, pH 9.5; Figure 3A
T5 sequence (P05089 1-322 S137C): T2 sequence (P05089 1-322 D181T/V182E) with S137C, T181D, E182V
Method: as §1, §2, §3

[6] = molecular target: T6, human arginase type I N139D (Homo sapiens, UniProt P05089, N139D); experiment: Kinetic and inhibition studies, N139D mutant; format: biochemical; conditions: arginine 5 mM, pH 9.5; Figure 3A
T6 sequence (P05089 1-322 N139D): T2 sequence (P05089 1-322 D181T/V182E) with N139D, T181D, E182V
Method: as §1, §2, §3

E. coli agmatinase = molecular target: T7, E. coli agmatinase (Escherichia coli, UniProt P60651); experiment: Kinetic studies, E. coli agmatinase; format: biochemical; conditions: substrate = labelled compound; n/a = no activity with the substrate
T7 sequence (P60651 1-306): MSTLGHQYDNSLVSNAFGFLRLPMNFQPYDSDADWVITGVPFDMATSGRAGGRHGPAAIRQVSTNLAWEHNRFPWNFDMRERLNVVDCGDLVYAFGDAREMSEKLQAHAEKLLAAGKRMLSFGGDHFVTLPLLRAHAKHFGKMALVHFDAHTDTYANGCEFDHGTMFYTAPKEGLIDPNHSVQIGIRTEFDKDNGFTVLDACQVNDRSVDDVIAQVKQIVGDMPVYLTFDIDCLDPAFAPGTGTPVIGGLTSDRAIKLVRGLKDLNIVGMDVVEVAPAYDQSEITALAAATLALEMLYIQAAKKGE
Method: as §3

[7] = molecular target: T8, Chimera A1 (I129T/N130Y/T131A) of human arginase type I (Homo sapiens, UniProt P05089, I129T/N130Y/T131A); experiment: Kinetic and inhibition studies, Chimera A1; format: biochemical; conditions: substrate arginine
T8 sequence (P05089 1-322 I129T/N130Y/T131A): T2 sequence (P05089 1-322 D181T/V182E) with I129T, N130Y, T131A, T181D, E182V
Method: as §1, §2, §3

rat liver arginase = tested on: rat liver arginase; design: method as in PMID 8031143; conditions: substrate agmatine; cited from earlier work
[8] = molecular target: T9, type I human arginase D181T (Homo sapiens, UniProt P05089, D181T); experiment: Kinetic and inhibition studies, D181T mutant; format: biochemical; conditions: substrate arginine
T9 sequence (P05089 1-322 D181T): T2 sequence (P05089 1-322 D181T/V182E) with E182V
Method: as §1, §2, §3

[9] = molecular target: T10, type I human arginase V182E (Homo sapiens, UniProt P05089, V182E); experiment: Kinetic and inhibition studies, V182E mutant; format: biochemical; conditions: substrate arginine
T10 sequence (P05089 1-322 V182E): T2 sequence (P05089 1-322 D181T/V182E) with T181D
Method: as §1, §2, §3

[10] = molecular target: T11, type I human arginase D181T/V182E + ins F (Homo sapiens, UniProt P05089, D181E/D181T/INS180T/V182E/V182F); experiment: Kinetic and inhibition studies, D181T/V182E + ins F; format: biochemical; conditions: substrate arginine
T11 sequence (P05089 with tags, fused parts or gaps INS180T/D181E/V182F): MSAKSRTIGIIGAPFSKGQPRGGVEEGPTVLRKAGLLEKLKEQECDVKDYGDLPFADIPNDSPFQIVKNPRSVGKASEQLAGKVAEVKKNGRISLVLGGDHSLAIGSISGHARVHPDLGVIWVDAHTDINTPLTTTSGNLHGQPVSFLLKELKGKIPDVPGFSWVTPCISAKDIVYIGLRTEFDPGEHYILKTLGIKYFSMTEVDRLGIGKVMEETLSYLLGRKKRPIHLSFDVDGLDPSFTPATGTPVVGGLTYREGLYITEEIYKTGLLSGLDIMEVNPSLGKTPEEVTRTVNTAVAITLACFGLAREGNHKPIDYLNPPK
Method: as §1, §2, §3

NCCCCN [Putrescine, putrescine]
Inhibition type [1]: competitive | Inhibition type [2]: competitively inhibited

N=C(N)NCCCCN [Agmatine, 1-amino-4-guanidinobutane]
Inhibition of arginase activity by agmatine ([3]; arginine 5 mM, pH 9.5, Figure 3A): poorly inhibited | Inhibition type [3]: Competitive | Kis (Ki) ([3]; pH 9.5): 42 ± 5 mM | Inhibition of arginase activity by agmatine [4]: markedly sensitive | Inhibition of arginase activity by agmatine [5]: markedly sensitive | Inhibition of arginase activity by agmatine [6]: markedly sensitive | kcat (E. coli agmatinase): 120 ± 10 s⁻¹ | Inhibition type [7]: Competitive | Kis (Ki) [7]: 27 ± 2 mM | kcat, times lower than for arginine (rat liver arginase): approximately 5000 times

N=C(N)N [Guanidine, guanidine]
Inhibition type [3]: Competitive | Kis (Ki) ([3]; pH 9.5): 56 ± 4 mM | Inhibition type [7]: Competitive | Kis (Ki) [7]: 38 ± 6 mM | Inhibition type [1]: linear competitive inhibition | Kis [1]: 40 ± 6 mM | Inhibition type [8]: Competitive | Kis [8]: 85 ± 10 mM | Inhibition type [9]: Competitive | Kis [9]: 89 ± 12 mM | Inhibition type [2]: Competitive | Kis (Ki) [2]: 80 ± 5 mM | Inhibition type [10]: Competitive | Kis [10]: 70 ± 10 mM

NCCCC[C@H](N)C(=O)O [Lysine, lysine]
Kis (Ki) ([3]; pH 9.5): 5 mM | Inhibition type [2]: competitively inhibited | Kis (Ki) [2]: 42 mM
